Assay results as given in patent publication US5536732A, “N-derivatives of 1-deoxy nojirimycin” (Merrell Pharmaceuticals Inc., priority 1990, dated 1996).

Assays:
HIV-1GB8 [1] = experiment: Inhibition of syncytia formation in JM cells infected with HIV-1GB8 (3 days incubation, 37° C.); assay type: cell-based; parameters: unit not given here; conditions: HIV-1GB8, 3 days at 37° C.
Text: (§1) Inhibition of the maturation of envelope glycoproteins gp 160 and gp 120 in human HIV by α-glucosidase I inhibitors result in reductions in infectivity and syncytial formation of the HIV virus. AIDS, Vol. 5(6): 693-698 (1991). Therefore, in order to test the antiviral activity of the compounds of the present invention, the following protocol was followed.
(§2) JM cells were infected with HIV-1GB8 for one hour at room temperature. The cells were then washed and subsequently grown in the presence of varying concentrations of test compound or no compound (control). […] The cell-free supernatant fluid was then titrated for levels of infectivity.
ED50 means 50% effective dose corresponds to the concentration of inhibitor required to lower the syncytia counts by 50%.

HIV-1GB8 [2] = experiment: Infectivity titration of cell-free supernatant from HIV-1GB8 infected JM cells; assay type: cell-based
Text: as §1, §2
Infectivity is expressed as log10 determined by the highest dilution of cell-free medium at which syncytia was detected. The results in Table 1 were found.

[3] = Human immunodeficiency virus 1, 72 h, Conc 0.06 mM, read-out: % Control
[4] = Human immunodeficiency virus 1, 72 h, Conc 0.125 mM, read-out: % Control
[5] = Conc 0.5 mM, control 10^3 (Example 44) or 10^4 (Example 43)
[6] = Human immunodeficiency virus 1, 72 h, Conc 0.5 mM, read-out: % Control

## C[Si](C)(C)CN1C[C@H](O)[C@@H](O)[C@H](O)[C@H]1CO [Example 32, 1,5-dideoxy-1,5-{[(trimethylsilyl)methyl]imino}-D-glucitol]
HIV-1GB8 [1]
  ED50 (concentration required to lower the syncytia counts by 50%): 540

## C[Si](C)(C)CCCCN1C[C@H](O)[C@@H](O)[C@H](O)[C@H]1CO [Example 36, 1,5-dideoxy-1,5-{[4-(trimethylsilyl)butyl]imino}-D-glucitol]
HIV-1GB8 [2]; Conc 0.06 mM, control 10^4
  Infectivity (highest dilution of cell-free medium at which syncytia was detected): 10^3
HIV-1GB8 [2]; Conc 0.125 mM, control 10^4
  Infectivity (highest dilution of cell-free medium at which syncytia was detected): 10^3
HIV-1GB8 [2]; [3]
  activity at 60 µM: 73%
HIV-1GB8 [2]; [4]
  activity at 125 µM: 37%

## C[Si](C)(C)/C=C/CN1C[C@H](O)[C@@H](O)[C@H](O)[C@H]1CO [Example 40, 1,5-dideoxy-1,5-{[(E)-3-(trimethylsilyl)-2-propenyl]imino}-D-glucitol]
HIV-1GB8 [2]; Conc 0.06 mM, control 10^4
  Infectivity (highest dilution of cell-free medium at which syncytia was detected): 10^3
HIV-1GB8 [2]; Conc 0.125 mM, control 10^4
  Infectivity (highest dilution of cell-free medium at which syncytia was detected): 10^2
HIV-1GB8 [2]; [3]
  activity at 60 µM: 79%
HIV-1GB8 [2]; [4]
  activity at 125 µM: 23%
HIV-1GB8 [1]
  ED50 (concentration required to lower the syncytia counts by 50%): 20

## C[Si](C)(C)c1cccc(CN2C[C@H](O)[C@@H](O)[C@H](O)[C@H]2CO)c1 [Example 43, 1,5-Dideoxy-1,5-[{[3-(Trimethylsilyl)Phenyl]Methyl}Imino]-D-Glucitol]
HIV-1GB8 [2]; Conc 0.25 mM, control 10^4
  Infectivity (highest dilution of cell-free medium at which syncytia was detected): 10^4
HIV-1GB8 [2]; [5]
  Infectivity (highest dilution of cell-free medium at which syncytia was detected): 10^4
HIV-1GB8 [2]; Human immunodeficiency virus 1, 72 h, Conc 0.25 mM, read-out: % Control
  activity at 250 µM: 100%
HIV-1GB8 [2]; [6]
  activity at 500 µM: 100%
HIV-1GB8 [1]
  ED50 (concentration required to lower the syncytia counts by 50%): > 250

## C[Si](C)(C)CCCN1C[C@H](O)[C@@H](O)[C@H](O)[C@H]1CO [Example 44, 1,5-Dideoxy-1,5-{[3-(trimethylsilyl)propyl]imino}-D-glucitol]
HIV-1GB8 [2]; [5]
  Infectivity (highest dilution of cell-free medium at which syncytia was detected): 10^1
HIV-1GB8 [2]; [6]
  activity at 500 µM: 0%

## C[Si](C)(C)c1ccc(CN2C[C@H](O)[C@@H](O)[C@H](O)[C@H]2CO)cc1 [Example 46, 1,5-dideoxy-1,5-[{[4-(trimethylsilyl)phenyl]methyl}imino]-D-glucitol]
HIV-1GB8 [2]; Conc 0.06 mM, control 10^4
  Infectivity (highest dilution of cell-free medium at which syncytia was detected): 10^3
HIV-1GB8 [2]; Conc 0.125 mM, control 10^4
  Infectivity (highest dilution of cell-free medium at which syncytia was detected): 10^2
HIV-1GB8 [2]; [3]
  activity at 60 µM: 55%
HIV-1GB8 [2]; [4]
  activity at 125 µM: 28%
HIV-1GB8 [1]
  ED50 (concentration required to lower the syncytia counts by 50%): 10

## C[Si](C)(C)CCCCCN1C[C@H](O)[C@@H](O)[C@H](O)[C@H]1CO [Example 49, 1,5-dideoxy-1,5-{[5-(trimethylsilyl)pentyl]imino}-D-glucitol]
HIV-1GB8 [2]; Conc 0.006 mM, control 10^3
  Infectivity (highest dilution of cell-free medium at which syncytia was detected): 10^2
HIV-1GB8 [2]; Conc 0.012 mM, control 10^3
  Infectivity (highest dilution of cell-free medium at which syncytia was detected): 10^1
HIV-1GB8 [2]; Human immunodeficiency virus 1, 72 h, Conc 0.006 mM, read-out: % Control
  activity at 6 µM: 63%
HIV-1GB8 [2]; Human immunodeficiency virus 1, 72 h, Conc 0.012 mM, read-out: % Control
  activity at 12 µM: 24%

## C[Si](C)(C)CCCCCCN1C[C@H](O)[C@@H](O)[C@H](O)[C@H]1CO [Example 52, 1,5-Dideoxy-1,5-{[6-(Trimethylsilyl)Hexyl]Imino}-D-Glucitol]
HIV-1GB8 [1]
  ED50 (concentration required to lower the syncytia counts by 50%): 33

## C[Si](C)(CCCCN1C[C@H](O)[C@@H](O)[C@H](O)[C@H]1CO)c1ccccc1 [Example 53, 1,5-dideoxy-1,5-{[4-(dimethylphenylsilyl)butyl]imino}-D-glucitol]
HIV-1GB8 [1]
  ED50 (concentration required to lower the syncytia counts by 50%): 12

## C[Si](C)(C)/C=C\CN1C[C@H](O)[C@@H](O)[C@H](O)[C@H]1CO [Example 54, 1,5-dideoxy-1,5-{[(Z)-3-(trimethylsilyl)-2-propenyl]imino}-D-glucitol]
HIV-1GB8 [1]
  ED50 (concentration required to lower the syncytia counts by 50%): 310

## CC(C)(C)[Si](C)(C)/C=C/CN1C[C@H](O)[C@@H](O)[C@H](O)[C@H]1CO [Example 55, 1,5-Dideoxy-1,5-{[(E)-3-(t-butyldimethylsilyl)-2-propenyl]imino}-D-glucitol]
HIV-1GB8 [1]
  ED50 (concentration required to lower the syncytia counts by 50%): 45

## CC(C)(C)[Si](C)(C)/C=C\CN1C[C@H](O)[C@@H](O)[C@H](O)[C@H]1CO [Example 59, 1,5-Dideoxy-1,5-{[(Z)-3-(t-butyldimethylsilyl)-2-propenyl]-imino-}-D-glucitol]
HIV-1GB8 [1]
  ED50 (concentration required to lower the syncytia counts by 50%): 190

## CC[Si](C)(C)CN1C[C@H](O)[C@@H](O)[C@H](O)[C@H]1CO [Example 60, 1,5-Dideoxy-1,5-{[(Ethyldimethylsilyl)-Methyl]Imino}-D-Glucitol]
HIV-1GB8 [1]
  ED50 (concentration required to lower the syncytia counts by 50%): 18
